# Experimental data published in patent publication US9914760B2, “Methods of identifying, isolating and using odorant and aroma receptors” (Firmenich SA, priority 2013, dated 2018).
# Experiments:
# Set-up in all cases: species or system mouse
# [1] = tested on: Olfr740; test: cell-based calcium-flux assay, HEK293T with Gα15; conditions: dose-response curves FIG. 6D-J
# Source text: (§1) The activity of candidate human indole and skatole malodors receptors OR52N2 (SEQ ID NO: 11 and SEQ ID NO: 12), OR11G2 (SEQ ID NO: 13 and SEQ ID NO: 14, OR5AC2 (SEQ ID NO: 75 and SEQ ID NO: 76), OR4C15 (SEQ ID NO: 79 and SEQ ID NO: 80), OR8S1 (SEQ ID NO: 83 and SEQ ID NO: 84), OR11H6 (SEQ ID NO: 15 and SEQ ID NO: 16) and OR11H4 (SEQ ID NO: 49 and SEQ ID NO: 50) and candidate mouse indole and skatole malodors receptors Olfr665 (SEQ ID NO: 9 and SEQ ID NO 10) and Olfr740 (SEQ ID NO: 1 and SEQ ID NO 2) were confirmed in cell-based calcium-flux assays (FIGS. 6A to 6J). Cells stably co-expressing Rho-tagged human OR52N2 (FIG. 6A, B) or OR11G2 (FIG. 6C) and Gα15 (SEQ ID NO: 25) were exposed to increasing concentrations of skatole or indole. FIG. 6B is a repeat experiment showing similar activity of OR52N2 with indole and skatole. Odorant-induced OR52N2 or OR11G2 activity was detected by measuring the maximum Calcium 5 dye (Molecular Devices) fluorescence change following odorant exposure. Activity is defined as the baseline corrected Relative Fluorescent Units (RFU) ratios normalized to the highest RFU in the experiment in FIG. 6A. […] A cell line lacking a receptor, for example hOR52N2, was used as a control for non-specific activity at high concentrations (‘Indole control’ and ‘Skatole control’). The human receptor OR52N2 (SEQ ID NO: 11 and SEQ ID NO: 12) was identified because of its sequence similarity to mouse Olfr665 (SEQ ID NO: 10), an indole/skatole receptor isolated from olfactory neurons responding to both indole and skatole. The human receptor OR11G2 (SEQ ID NO: 13 and SEQ ID NO: 14) was identified because of its sequence similarity to mouse Olfr740 (SEQ ID NO: 2), an indole/skatole receptor isolated from olfactory neurons responding to both indole and skatole. The receptors were modified with the Rho sequence and stably expressed in HEK 293T cells. Further examples show indole and skatole dose-response curves for human receptors OR5AC2, OR4C15, OR8S1, OR11H6, OR11H4 and mouse receptors Olfr665 and Olfr740 (FIG. 6D-J). The human receptor OR5AC2 (SEQ ID NO: 75 and SEQ ID NO: 76) was identified because of its sequence similarity to mouse Olfr207 (SEQ ID NO: 78), a receptor isolated from olfactory neurons responding to both indole and skatole. The human receptor OR4C15 (SEQ ID NO: 79 and SEQ ID NO: 80) was identified because of its sequence similarity to mouse Olfr211 (SEQ ID NO: 82), a receptor isolated from olfactory neurons responding to both indole and skatole. The human receptor OR8S1 (SEQ ID NO: 83 and SEQ ID NO: 84) was identified because of its sequence similarity to mouse Olfr257 (SEQ ID NO: 86), a receptor isolated from olfactory neurons responding to both indole and skatole. […]
# [2] = tested on: Olfr665; test: cell-based calcium-flux assay, HEK293T with Gα15; conditions: dose-response curves FIG. 6D-J
# Source text: as §1
# [3] = tested on: Olfr740; test: cell-based cAMP assay (HTRF), HEK293T co-transfected with Gαolf; conditions: increasing concentrations; FIGS. 5A-5D
# Source text: (§2) The activity of candidate mouse receptors Olfr740 (SEQ ID NO: 1 and SEQ ID NO: 2), Olfr743 (SEQ ID NO: 5 and SEQ ID NO: 6), and Olfr746 (SEQ ID NO: 37 and SEQ ID NO: 38) to both indole and skatole malodors were confirmed in cell-based cAMP assays. In FIGS. 5A and 5B, FLAG Rho-tagged (SEQ ID 18) Olfr743 (SEQ ID NO: 6) and Olfr740 (SEQ ID NO: 2) cDNA sequences were co-transfected with Gαolf (SEQ ID NO: 21) and exposed to increasing concentrations of indole (left) or skatole (right). FIGS. 5C and 5D are repeat experiments showing similar activity of Olfr740 (SEQ ID NO: 2) with Olfr743 (SEQ ID NO: 6) with indole and skatole. In FIG. 5E, the FLAG Rho-tagged (SEQ ID 18) Olfr746 (SEQ ID NO: 38) cDNA sequence was co-transfected with Gαolf (SEQ ID NO: 21) and exposed to increasing concentrations of indole or skatole. Odorant-induced activity was detected by measuring cAMP levels in the cytosol using the HTRF approach (CisBio kit). […] Co-transfection of HEK cells with Gαolf (SEQ ID NO: 21) alone (no receptor) were used as controls for non-specific activity (control). Activity is defined as the baseline corrected HTRF ratios normalized to the highest signal in the experiment. […] All three receptors show specific dose dependent activity to the malodor compounds and, as such, validate the process for identifying receptors for these compounds. Mouse receptors Olfr740 (SEQ ID NO: 1 and SEQ ID NO: 2) and Olfr743 (SEQ ID NO: 5 and SEQ ID NO: 6) were identified from isolated olfactory neurons that responded to both indole and skatole. Mouse receptor Olfr746 (SEQ ID NO: 37 and SEQ ID NO: 38) was identified in silico by database mining using Olfr740 (SEQ ID NO: 2) and Olfr743 (SEQ ID NO: 6) as query sequences. The receptors are modified at their N-terminus with the FLAG tag and the first 20 amino acids of the bovine rhodopsin receptor (SEQ ID 18), transiently expressed in HEK 293T cells, and stimulated separately with indole and skatole to confirm their identity as bona fide indole/skatole receptors. Co-expression of the human G alpha subunit Gαolf (SEQ ID NO: 21) activates the Gs transduction pathway that leads to an internal cAMP increase upon binding to the appropriate ligand.
# [4] = tested on: Olfr746; test: as above; conditions: increasing concentrations; FIG. 5E
# Source text: as §2
Compound,receptor activation in vitro [1],receptor activation in vitro [2],"receptor activity (cAMP, HTRF) [3]","receptor activity (cAMP, HTRF) [4]"
c1ccc2[nH]ccc2c1 [indole],activated,activated,dose-dependent increase of receptor activity,dose-dependent increase of receptor activity
"Cc1c[nH]c2ccccc12 [skatole, 3-methyl indole]",activated,activated,dose-dependent increase of receptor activity,dose-dependent increase of receptor activity
